Experiments:
hKV10.1a = target: T1, hKV10.1a (Homo sapiens, UniProt O95259); test: Two-electrode voltage-clamp recordings of KV10.1 currents in Xenopus laevis oocytes; format: cell-based; conditions: for KV10.1 inhibitory activity in words (structure-activity discussion): based on inhibition at 40 μM (Fig 5)
T1 construct: expressed in transfected cells; host or cells: Xenopus laevis oocytes injected with cRNA transcribed from the hKV10.1a-pSGEM plasmid
T1 sequence (O95259 1-962 isoform O95259-2): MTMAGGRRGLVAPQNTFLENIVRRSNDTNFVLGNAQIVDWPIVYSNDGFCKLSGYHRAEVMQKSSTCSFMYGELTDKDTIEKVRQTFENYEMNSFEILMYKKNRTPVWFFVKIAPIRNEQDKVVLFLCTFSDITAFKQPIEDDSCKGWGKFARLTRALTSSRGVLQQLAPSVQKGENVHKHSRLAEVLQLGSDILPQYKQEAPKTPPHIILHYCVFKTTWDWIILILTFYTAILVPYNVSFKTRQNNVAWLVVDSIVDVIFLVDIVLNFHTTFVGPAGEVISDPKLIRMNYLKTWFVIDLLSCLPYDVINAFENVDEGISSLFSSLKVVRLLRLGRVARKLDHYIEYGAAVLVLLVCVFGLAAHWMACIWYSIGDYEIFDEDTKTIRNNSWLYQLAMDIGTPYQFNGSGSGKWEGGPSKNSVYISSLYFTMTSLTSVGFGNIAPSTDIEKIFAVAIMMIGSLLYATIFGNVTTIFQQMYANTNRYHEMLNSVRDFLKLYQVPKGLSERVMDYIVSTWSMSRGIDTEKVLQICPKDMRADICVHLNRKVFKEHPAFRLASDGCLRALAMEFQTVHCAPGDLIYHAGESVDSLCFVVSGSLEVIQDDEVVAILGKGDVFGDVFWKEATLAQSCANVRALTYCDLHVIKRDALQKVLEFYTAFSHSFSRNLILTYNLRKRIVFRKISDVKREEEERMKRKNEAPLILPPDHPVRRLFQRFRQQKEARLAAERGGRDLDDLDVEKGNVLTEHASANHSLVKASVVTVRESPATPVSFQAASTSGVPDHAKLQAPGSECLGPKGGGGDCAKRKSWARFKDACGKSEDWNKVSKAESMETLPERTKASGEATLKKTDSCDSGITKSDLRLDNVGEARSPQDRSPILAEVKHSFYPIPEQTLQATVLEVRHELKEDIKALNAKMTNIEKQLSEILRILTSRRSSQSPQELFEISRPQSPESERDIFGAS
From the text: For the expression of hKV10.1a (GeneBank accession number: NM_002238.3) in Xenopus oocytes, the hKV10.1a-pSGEM plasmid was linearized with SfiI (ThermoFisher Scientific, Waltham, Massachusetts, USA) and transcribed using the T7 mMESSAGE-mMACHINE transcription kit (Ambion®, Carlsbad, California, USA).
Stage V-VI Xenopus laevis (African clawed frog) oocytes were isolated by partial ovariectomy. Mature female animals were purchased from Nasco (Fort Atkinson, Wisconsin, USA) and were housed in the Aquatic Facility (KU Leuven) in compliance with the regulations of the European Union (EU) concerning the welfare of laboratory animals as declared in Directive 2010/63/EU. The use of Xenopus laevis was approved by the Animal Ethics Committee of the KU Leuven (Project nr. P038/2017). Prior to harvesting the oocytes, the animals were anesthetized by a 15-min submersion in 0.1% tricaine methanesulfonate (pH 7.0). Isolated oocytes were defolliculated with 1.5 mg/mL collagenase.
Defolliculated oocytes were injected with 4 nL of cRNA at a concentration of 1 ng/nL using a micro-injector (Drummond Scientific®, Broomall, Pennsylvania, USA). The oocytes were incubated in a solution containing (in mM): NaCl, 96; KCl, 2; CaCl2, 1.8; MgCl2, 2 and HEPES, 5 (pH 7.4), supplemented with 50 mg/L gentamycin sulfate.
Two-electrode voltage-clamp recordings were performed at room temperature (18–22°C) using a Geneclamp 500 amplifier (Molecular Devices, USA) controlled by a pClamp data acquisition system (Axon Instruments®, Union City, California, USA). Whole cell currents from oocytes were recorded 1–4 days after injection. Bath solution composition was (in mM): NaCl, 96; KCl, 2; CaCl2, 1.8; MgCl2, 2 and HEPES, 5 (pH 7.5). Voltage and current electrodes were filled with a 3 M solution of KCl in H2O. Resistances of both electrodes were kept between 0.5 and 1.5 MΩ. The elicited KV10.1 currents were filtered at 1 kHz and sampled at 2 kHz using a four-pole low-pass Bessel filter. Leak subtraction was performed using a -P/4 protocol. KV10.1 currents were evoked by 2-s depolarizing pulses to 0 mV from a holding potential of -90 mV unless otherwise indicated.
All electrophysiological data are presented as means ± S.E.M of n ≥ 3 independent experiments unless otherwise indicated. All data was analyzed using pClamp Clampfit 10.4 (Molecular Devices®, Downingtown, Pennsylvania, USA) and OriginPro 8 (Originlab®, Northampton, Massachusetts, USA) or GraphPad Prism 5 software (GraphPad Software, Inc., San Diego, California, USA).

[1] = 40 μM, extracellular perfusion, average ± SEM, read-out: KV10.1 current inhibition

Structure (SMILES)	inhibition at 40 µM (hKV10.1a; [1]) [%]	melting point [°C]	other results
CN(C)CCCOc1c(Br)cc(CCNC(=O)c2ccccc2Br)cc1Br [Compound 12]	27 ± 4		
CN(C)CCCOc1c(Br)cc(CCNC(=O)c2ccc(Br)cc2)cc1Br [Compound 14]	22 ± 3		
CN(C)CCCOc1c(Br)cc(CCNC(=O)c2cncc(Br)c2)cc1Br [Compound 15]	50 ± 3		
CN(C)CCCc1c(Br)cc(CCNC(=O)c2cc(Cl)cc(Cl)c2)cc1Br [Compound 16]		83 to 84.5	
CN(C)CCCOc1c(Br)cc(CCNC(=O)c2cc(F)cc(F)c2)cc1Br [Compound 18]	35 ± 2		
CN(C)CCCOc1c(Br)cc(CCNC(=O)c2ccccc2F)cc1Br [Compound 19]	32 ± 4	70 to 72	
COc1ccc(C(=O)NCCc2cc(Br)c(CCCN(C)C)c(Br)c2)cc1 [Compound 21]		106 to 109	
COc1c(Cl)cc(C(=O)NCCc2cc(Br)c(CCCN(C)C)c(Br)c2)cc1Cl [Compound 23]		91 to 95	
CCOc1c(Cl)cc(C(=O)NCCc2cc(Br)c(CCCN(C)C)c(Br)c2)cc1Cl [Compound 24]		73 to 75	
COc1ccc(C(=O)NCCc2cc(Br)c(OCCCN(C)C)c(Br)c2)cc1Br [Compound 25]	80 ± 4		
COc1c(Br)cc(C(=O)NCCc2cc(Br)c(CCCN(C)C)c(Br)c2)cc1Br [Compound 26]		83 to 85	
COc1ccc(C(=O)NCCc2cc(Br)c(OCCCN(C)C)c(Br)c2)cc1F [Compound 27]	65 ± 1	83 to 89	
COc1c(F)cc(C(=O)NCCc2cc(Br)c(CCCN(C)C)c(Br)c2)cc1F [Compound 28]		93 to 96	
COc1ccc(C(=O)NCCc2cc(Br)c(OCCCN(C)C)c(Br)c2)cc1I [Compound 29]	79 ± 2		
COc1ccc(C(=O)NCCc2cc(Br)c(OCCCN(C)C)c(Br)c2)cc1C [Compound 30]	80 ± 2		
COc1ccc(C(=O)NCCc2cc(Br)c(OCCCN(C)C)c(Br)c2)cc1OC [Compound 31]	44 ± 4		
CC(C)CCCOc1c(Br)cc(CCNC(=O)c2cc(Br)cc(Br)c2)cc1Br [Compound 32]	0	123 to 124	KV10.1 inhibitory activity in words (structure-activity discussion) (hKV10.1a): total loss of the activity
CC(C)CCCOc1c(Br)cc(CCNC(=O)c2cc(Cl)cc(Cl)c2)cc1Br [Compound 33]	0	107.5 to 109	KV10.1 inhibitory activity in words (structure-activity discussion) (hKV10.1a): total loss of the activity
O=C(NCCc1ccc(O)cc1)c1cc(Cl)cc(Cl)c1 [Compound 34]			KV10.1 current inhibition (hKV10.1a; 40 μM, extracellular perfusion, average ± SEM): 0 ± 0%
CN(C)CCCOc1ccc(CCNC(=O)c2cc(Cl)cc(Cl)c2)cc1 [Compound 35]	4 ± 4		KV10.1 inhibitory activity in words (structure-activity discussion) (hKV10.1a): abolished the activity
CNCCCOc1c(Br)cc(CCNC(=O)c2ccc(OC)cc2)cc1Br [Compound 43]	9 ± 5	89 to 97	
CNCCCOc1c(Br)cc(CCNC(=O)c2ccc(OC)c(Cl)c2)cc1Br [Compound 44]	58 ± 1		
CNCCCOc1c(Br)cc(CCNC(=O)c2cc(Cl)c(OC)c(Cl)c2)cc1Br [Compound 45]	39 ± 7	86 to 97	
CNCCCOc1c(Br)cc(CCNC(=O)c2cc(F)c(OC)c(F)c2)cc1Br [Compound 46]	14 ± 5	87 to 92	
COCC(=O)O[C@]1(CCN(C)CCCc2nc3ccccc3[nH]2)CCc2cc(F)ccc2[C@@H]1C(C)C [mibefradil, reference compound]			inhibition at 10 µM (hKV10.1a; 10 μM, 2-s depolarizing pulses to 0 mV from -90 mV, read-out: KV10.1 current inhibition): 50 ± 5%

Source: paper PMC5722316, “Synthesis of novel purpurealidin analogs and evaluation of their effect on the cancer-relevant potassium channel KV10.1” (PLoS ONE, 2017)
